From PubChem BioAssay AID328 (DTP/NCI, 2004) come the findings set out here.

“And” between values parts separate entries of the source, which are not always exact repeats. Equal entries are not always repeated. Toxic doses and inconclusive results are not listed.

The test system of the assay is BDF1 mice, P388 leukemia ip, median survival T/C. The assay can be described thus: NCI In Vivo Anticancer Drug Screen. Data for tumor model P388 Leukemia (intraperitoneal) in B6D2F1 (BDF1) mice. Conditions: endpoint: median survival time, higher = longer survival. A digest of the protocol:
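Antitumour effect was judged in vivo: survival in drug-treated mice, normalised to that of vehicle-dosed controls, gives the reported T/C.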

The mark [1] stands for this setting: dose: 100.0 mg/kg/injection, schedule: Q01DX009 (ip), vehicle: saline.
The mark [2] stands for this setting: dose: 100.0 mg/kg/injection, schedule: Q04DX003 (ip), vehicle: saline.
[3] abbreviates: dose: 200.0 mg/kg/injection, schedule: Q04DX003 (ip), vehicle: saline.
Setting [4] is: dose: 400.0 mg/kg/injection, schedule: Q01DX009 (ip), vehicle: saline.
The mark [5] stands for this setting: dose: 400.0 mg/kg/injection, schedule: Q04DX003 (ip), vehicle: saline.
Where [6] appears, read: dose: 50.0 mg/kg/injection, schedule: Q01DX009 (ip), vehicle: saline with Tween-80.
Setting [7] is: dose: 100.0 mg/kg/injection, schedule: Q01DX009 (ip), vehicle: saline with Tween-80.
[8] abbreviates: dose: 200.0 mg/kg/injection, schedule: Q01DX009 (ip), vehicle: saline with Tween-80.
Where [9] appears, read: dose: 100.0 mg/kg/injection, schedule: Q04DX003 (ip), vehicle: Klucel (hydroxypropylcellulose) (HPC).
Setting [10] is: dose: 200.0 mg/kg/injection, schedule: Q04DX003 (ip), vehicle: Klucel (hydroxypropylcellulose) (HPC).
[11] abbreviates: dose: 400.0 mg/kg/injection, schedule: Q04DX003 (ip), vehicle: Klucel (hydroxypropylcellulose) (HPC).
The mark [12] stands for this setting: dose: 25.0 mg/kg/injection, schedule: Q01DX009 (ip), vehicle: saline with Tween-80.
Setting [13] is: dose: 100.0 mg/kg/injection, schedule: Q04DX003 (ip), vehicle: saline with Tween-80.
Where [14] appears, read: dose: 200.0 mg/kg/injection, schedule: Q04DX003 (ip), vehicle: saline with Tween-80.
The mark [15] stands for this setting: dose: 400.0 mg/kg/injection, schedule: Q04DX003 (ip), vehicle: saline with Tween-80.
[16] abbreviates: dose: 200.0 mg/kg/injection, schedule: Q01DX009 (ip), vehicle: Klucel (hydroxypropylcellulose) (HPC).
The mark [17] stands for this setting: dose: 25.0 mg/kg/injection, schedule: Q04DX003 (ip), vehicle: saline.
[18] abbreviates: dose: 50.0 mg/kg/injection, schedule: Q04DX003 (ip), vehicle: saline.
Setting [19] is: dose: 100.0 mg/kg/injection, schedule: Q01DX009 (ip), vehicle: Klucel (hydroxypropylcellulose) (HPC).

In the case of `Cn1c(O)c(C=N)c(=O)[nH]c1=O`, the T/C runs as follows: under setting [1], 100 % of control; under setting [2], 100 % of control; under setting [3], 92 % of control; under setting [4], 109 % of control; under setting [5], 107 % of control.

Turning to `O=C1CCC([N+](=O)[O-])C(c2ccccc2Cl)N1` (stereo not given), the T/C was 99 % of control under setting [6], 86 % of control under setting [7] and 94 % of control under setting [8].

In the case of `CC(C)(C)OC(=O)C(C=O)N1C(=O)c2ccccc2C1=O` (stereo not given), the T/C reads like this: (dose: 100.0 mg/kg/injection, schedule: Q01DX001 (ip), vehicle: saline with Tween-80) 95 % of control; (dose: 200.0 mg/kg/injection, schedule: Q01DX001 (ip), vehicle: saline with Tween-80) 95 % of control; (dose: 400.0 mg/kg/injection, schedule: Q01DX001 (ip), vehicle: saline with Tween-80) 100 % of control.

Take `CC[CH2][Pb]([CH2]CC)([CH2]CC)[N]1C(=O)c2ccccc2C1=O`: the T/C (dose: 3.12 mg/kg/injection, schedule: Q01DX009 (ip), vehicle: Klucel (hydroxypropylcellulose) (HPC)) was 108 % of control and 123 % of control; the T/C (dose: 6.25 mg/kg/injection, schedule: Q01DX009 (ip), vehicle: Klucel (hydroxypropylcellulose) (HPC)) was 110 % of control and 123 % of control; the T/C (dose: 12.5 mg/kg/injection, schedule: Q01DX009 (ip), vehicle: Klucel (hydroxypropylcellulose) (HPC)) was 123 % of control.

In the case of `CCOC(=O)C(C)(C)CSC(C)(C)C(=O)OCC`, the T/C is 90 % of control under setting [2], 90 % of control under setting [3] and 95 % of control under setting [5].

Regarding `CN(C)C(=O)C(=O)C1C=Cc2ccccc21` (stereo not given), the T/C by setting is: (dose: 100.0 mg/kg/injection, schedule: Q01DX001 (ip), vehicle: Klucel (hydroxypropylcellulose) (HPC)) 100 % of control; under setting [9], 100 % of control; (dose: 200.0 mg/kg/injection, schedule: Q01DX001 (ip), vehicle: Klucel (hydroxypropylcellulose) (HPC)) 95 % of control; under setting [10], 104 % of control; (dose: 400.0 mg/kg/injection, schedule: Q01DX001 (ip), vehicle: Klucel (hydroxypropylcellulose) (HPC)) 90 % of control; under setting [11], 104 % of control.

For the molecule `COc1ccccc1C(c1ccccc1OC)N(C)C(C)(C)CO`, the T/C runs as follows: (dose: 6.25 mg/kg/injection, schedule: Q01DX009 (ip), vehicle: saline with Tween-80) 100 % of control; (dose: 12.5 mg/kg/injection, schedule: Q01DX009 (ip), vehicle: saline with Tween-80) 91 % of control; under setting [12], 91 % of control.

`Nc1nc(CNc2ccccc2)nc(Nc2ccccc2)n1`: the T/C by setting is: (dose: 50.0 mg/kg/injection, schedule: Q04DX003 (ip), vehicle: saline sonified) 100 % of control; (dose: 100.0 mg/kg/injection, schedule: Q04DX003 (ip), vehicle: saline sonified) 100 % of control; (dose: 200.0 mg/kg/injection, schedule: Q04DX003 (ip), vehicle: saline sonified) 105 % of control.

In the case of `OCCN1CCN(CC/C=C2/c3ccccc3Sc3ccc(C(F)(F)F)cc32)CC1`, the T/C runs as follows: (dose: 5.0 mg/kg/injection, schedule: Q01DX009 (ip), vehicle: saline) 101 % of control; (dose: 10.0 mg/kg/injection, schedule: Q01DX009 (ip), vehicle: saline) 101 % of control; (dose: 80.0 mg/kg/injection, schedule: Q04DX003 (ip), vehicle: saline) 97 % of control.

In the case of `CCCCCCCC(=O)Nc1c(C)cc(C)cc1C`, the T/C reads like this: under setting [13], 109 % of control; under setting [14], 100 % of control; under setting [15], 109 % of control.

Regarding `Nc1nc(N)c(-c2ccc(Cl)c(Cl)c2)c(COc2cccc(CNC(=O)c3cccc(S(=O)(=O)F)c3)c2)n1`, the T/C was 109 % of control (dose: 132.0 mg/kg/injection, schedule: Q04DX003 (ip), vehicle: Klucel (hydroxypropylcellulose) (HPC)); 150 % of control under setting [16]; 119 % of control under setting [10]; 155 % of control (dose: 300.0 mg/kg/injection, schedule: Q01DX009 (ip), vehicle: Klucel (hydroxypropylcellulose) (HPC)).

In the case of `Cc1nn(C)c(N)c1C#N`, the T/C (dose: 12.5 mg/kg/injection, schedule: Q01DX009 (ip), vehicle: saline) was 87 % of control; the T/C (dose: 25.0 mg/kg/injection, schedule: Q01DX009 (ip), vehicle: saline) is 94 % of control; the T/C under setting [17] is 103 % of control; the T/C (dose: 50.0 mg/kg/injection, schedule: Q01DX009 (ip), vehicle: saline) was 87 % of control; the T/C under setting [18] is 97 % of control; the T/C under setting [1] was 101 % of control. The T/C is 92 % of control under setting [2]; 100 % of control (dose: 200.0 mg/kg/injection, schedule: Q01DX009 (ip), vehicle: saline); 97 % of control under setting [3]; 92 % of control under setting [4]; 97 % of control under setting [5].

On to `Cc1cccc(NC(=O)C2CCC(C)(C(=O)O)C2(C)C)c1` (stereo not given), for which the T/C by setting is: (dose: 50.0 mg/kg/injection, schedule: Q04DX003 (ip), vehicle: saline with Tween-80) 100 % of control; under setting [13], 95 % of control; under setting [14], 104 % of control.

As to `COc1cccc(NC(=O)N2CCCCC2)c1`, the T/C is, setting by setting: (dose: 25.0 mg/kg/injection, schedule: Q01DX009 (ip), vehicle: Klucel (hydroxypropylcellulose) (HPC)) 111 % of control; (dose: 50.0 mg/kg/injection, schedule: Q01DX009 (ip), vehicle: Klucel (hydroxypropylcellulose) (HPC)) 111 % of control; under setting [19], 114 % of control; under setting [16], 114 % of control.

Turning to `O=c1oc(-c2cc([N+](=O)[O-])ccc2Cl)nc2ccccc12`, the T/C reads like this: (dose: 25.0 mg/kg/injection, schedule: Q04DX003 (ip), vehicle: saline with Tween-80) 95 % of control; under setting [13], 95 % of control.

Regarding `COc1ccc2nc3c(Cl)c(Cl)c(=O)c(Cl)c-3sc2c1`, the T/C runs as follows: (dose: 12.5 mg/kg/injection, schedule: Q01DX005 (ip), vehicle: saline with Tween-80) 102 % of control; (dose: 25.0 mg/kg/injection, schedule: Q01DX005 (ip), vehicle: saline with Tween-80) 88 % of control.

Consider `NC(=S)N/N=C/c1ccc(NC(=O)c2ccccc2C(=O)O)cc1`, for which the T/C was 95 % of control under setting [12], 87 % of control under setting [6] and 100 % of control under setting [7].

Regarding `C/C(=N\N=C(/C)c1ccc(Cl)cc1)c1ccc(Cl)cc1`, the T/C by setting is: under setting [19], 95 % of control; under setting [16], 90 % of control; (dose: 400.0 mg/kg/injection, schedule: Q01DX009 (ip), vehicle: Klucel (hydroxypropylcellulose) (HPC)) 113 % of control.

With `O=C(Nc1ccc(Cl)cc1C(=O)c1ccccn1)c1ccccc1`, the T/C is 120 % of control under setting [14] and 110 % of control under setting [15].

With `c1nc(N2CC2)c2cnn(C3CCCCO3)c2n1` (stereo not given), the T/C under setting [17] was 109 % of control; the T/C under setting [18] was 100 % of control; the T/C under setting [19] was 95 % of control; the T/C under setting [2] was 100 % of control; the T/C (dose: 150.0 mg/kg/injection, schedule: Q04DX003 (ip), vehicle: Klucel (hydroxypropylcellulose) (HPC)) is 120 % of control; the T/C under setting [16] was 116 % of control. Besides, the T/C (dose: 225.0 mg/kg/injection, schedule: Q04DX003 (ip), vehicle: Klucel (hydroxypropylcellulose) (HPC)) was 120 % of control.

Turning to `Cc1noc2nccnc12`, the T/C was 95 % of control under setting [12] and 95 % of control under setting [6].

Take `Nc1c(Br)cc(Br)c(C(=O)O)c1Br`: the T/C (dose: 50.0 mg/kg/injection, schedule: Q04DX003 (ip), vehicle: Klucel (hydroxypropylcellulose) (HPC)) was 100 % of control; the T/C under setting [9] was 100 % of control; the T/C under setting [10] was 95 % of control.

As to `CNc1ccccc1C#N`, the T/C runs as follows: under setting [19], 100 % of control; under setting [9], 91 % of control; under setting [16], 100 % of control; under setting [11], 91 % of control.

With `C[C@H](CCC[C@H](C)OS(=O)(=O)c1ccccc1)OS(=O)(=O)c1ccccc1`, the T/C under setting [12] is 117 % of control; the T/C under setting [6] was 99 % of control and 116 % of control; the T/C under setting [7] is 155 % of control; the T/C under setting [8] is 156 % of control and 180 % of control; the T/C (dose: 400.0 mg/kg/injection, schedule: Q01DX009 (ip), vehicle: saline with Tween-80) was 182 % of control.
